Read-outs that look alike come from different tables or passages of the source. Residues, ends and D or L forms follow the SMILES beside them.
Experiments:
HLA-DR1 (DRB1*0101) = molecular target: T1, HLA-DR1 (DRB1*0101) (Homo sapiens, UniProt P01903+P01911, A100R/D57E/F55L/F60I/F76Y/I96L/L162R/M171V/P40L/Q125E/R42F/V115G/Y59C); test: biochemical; type: binding; details: DRB1*0101
T1 construct: endogenous in cells; host or cells: homozygous EBV-transformed human B lymphocyte lines; immunopurified with antibody L243

HLA-DR7 (DRB1*0701) = HLA-DR7 (DRB1*0701) (Homo sapiens, UniProt P01903+P01911, A100R/A102G/A103Q/D57E/D86V/E43K/F76Y/K127E/L162R/M171V/P40G/Q125H/Q99D/R33Q/R42Y/R54Q/S133A/S66F/T210M/V115G/Y107V/Y59L/Y89S); test: biochemical; type: binding
HLA-DR11 (DRB1*1101) = HLA-DR11 (DRB1*1101) (Homo sapiens, UniProt P01903+P01911, A100R/A169T/A87E/I96F/K41T/L162R/M171V/P40S/Q125H/Q178H/Q39Y/Q99D/R42S/S66Y/T262R/V115G/W38E); test: biochemical; type: binding
Sequence of HLA-DR11 (DRB1*1101) (P01903 26-254 limits assumed, other chains not shown): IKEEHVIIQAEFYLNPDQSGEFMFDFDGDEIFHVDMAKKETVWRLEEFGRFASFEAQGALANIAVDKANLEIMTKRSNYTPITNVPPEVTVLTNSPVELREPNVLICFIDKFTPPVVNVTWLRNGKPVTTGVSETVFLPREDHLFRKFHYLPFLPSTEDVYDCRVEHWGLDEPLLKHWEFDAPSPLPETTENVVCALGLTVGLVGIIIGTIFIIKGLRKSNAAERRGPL

HLA-DR13 (DRB1*1301) = HLA-DR13 (DRB1*1301) (Homo sapiens, UniProt P01903+P01911, A100E/A169T/K41T/L162R/M171V/P40S/Q125H/Q178H/Q39Y/Q99D/R42S/S66N/T262R/W38E/Y61H); test: biochemical; type: binding
HLA-DR15 (DRB1*1501) = molecular target: T2, HLA-DR15 (DRB1*1501) (Homo sapiens, UniProt P01903+P01911); test: biochemical; type: binding
T2 construct: endogenous in cells; host or cells: homozygous EBV-transformed human B lymphocyte lines; immunopurified with antibody L243

HLA-DRB5 (DRB5*0101) = molecular target: T3, HLA-DRB5 (DRB5*0101) (Homo sapiens, UniProt P01903+Q30154); test: biochemical; type: binding
T3 construct: endogenous in cells; host or cells: homozygous EBV-transformed human B lymphocyte lines; immunopurified with antibody L243

HLA-DP402 (DPB1*0402) = HLA-DP402 (DPB1*0402) (Homo sapiens, UniProt P04440+P20036, A65V/A84D/A85E/L207M); test: biochemical; type: binding; details: DP*0402; read-out: binds with good affinity to DP402
DR3 = test: DR3
Source text: (§1) Table printed on a drawing sheet, Figure 2
Where the first naming reader finds the target: head: DR3

DR4 = test: DR4
DR7 = test: DR7
DR13 = test: DR13
Source text: as §1
Where the first naming reader finds the target: head: DR13

DR15 = test: DR15
DRB3 = test: DRB3
DRB4 = test: DRB4
Source text: as §1
Where the first naming reader finds the target: head: DRB4

DRB5 = test: DRB5
DR11 = test: DR11
Source text: as §1
Where the first naming reader finds the target: head: DR11

DP401 = test: DP401
HLA-DR3 (DRB1*0301) = molecular target: T4, HLA-DR3 (DRB1*0301) (Homo sapiens, UniProt P01903+P01911, A100K/A102G/A103R/A169T/F55Y/I96L/K41T/L162R/M171V/P40S/Q125H/Q178H/Q39Y/R42S/S66N/T106N/T262R/W38E/Y61H); test: biochemical; type: binding; details: tracer MT 2-16, read-out: IC50, binding to HLA-DR3
T4 construct: endogenous in cells; host or cells: homozygous EBV-transformed human B lymphocyte lines; immunopurified with antibody L243

HLA-DR4 (DRB1*0401) = molecular target: T5, HLA-DR4 (DRB1*0401) (Homo sapiens, UniProt P01903+P01911, A100K/A169T/F76Y/I96L/K127E/L162R/M171V/N62H/P40V/Q125Y/R42H/S133A/S149N/S66Y/V115G/V209L/W38E); test: biochemical; type: binding
T5 construct: endogenous in cells; host or cells: homozygous EBV-transformed human B lymphocyte lines; immunopurified with antibody L243

HLA-DRB4 (DRB4*0101) = molecular target: T6, HLA-DRB4 (DRB4*0101) (Homo sapiens, UniProt P01903+P13762, G164S); test: biochemical; type: binding
T6 construct: endogenous in cells; host or cells: homozygous EBV-transformed human B lymphocyte lines; immunopurified with antibody L243

[1] = test system: T lymphocytes derived from PBMCs from patients chronically infected with HCV; type: cell-based, human; details: supernatant 48 h, —: not detected
DR1 = test: DR1
DP402 = test: DP402
[2] = test system: CD4+ T lymphocyte lines derived from a seronegative individual; test: IFN-γ ELISPOT after in vitro immunization; type: cell-based, human; details: after 4 restimulations; for response of line P014/A (T lymphocytes secreting IFN-γ): FIG. 5A; for response of line P014/C (T lymphocytes secreting IFN-γ): FIG. 5C
Description: The ability of the peptides having good affinity for the HLA II molecules to induce stimulation of specific T lymphocytes in vitro was evaluated using blood samples from individuals seronegative for HCV. This involves evaluating the ability to recruit CD4+ precursor lymphocytes although they are, in a naïve individual, at very low frequency, i.e. to carry out an immunization in vitro by means of these peptides.
Peripheral blood mononuclear cells (PBMCs) were separated on a Ficoll gradient. The PBMCs were then cultured in AIM V medium (Life Technologies) and incubated in flasks, in an incubator at 37° C. in the presence of 5% of CO2. After overnight incubation, the non-adherent cells were recovered and loaded onto an LS+column (Miltenyi), and the CD4+ T lymphocytes thus purified were then frozen. The adherent cells were incubated for 5 days in AIM V medium containing 1000 U/ml of GM-CSF and 1000 U/ml of IL-4, and the cells that had differentiated into dendritic cells were then cultured for 2 days in the presence of 1 μg/ml of LPS, 1000 U/ml of IL-4 and 1000 U/ml of GM-CSF, so as to induce their maturation.
The mature dendritic cells (100 000 cells/well) were then incubated with a mixture of peptides (10 μg of each peptide), for 5 hours at 37° C. The mature dendritic cells were subsequently washed and then incubated, in the presence of the CD4+ T lymphocytes (100 000 cells/well) thawed beforehand, in medium containing 1000 U/ml of IL-6 and 10 ng/ml of IL-12. After 7 days, the culture was restimulated a first time by means of mature dendritic cells that had been thawed and loaded with the mixture of peptides beforehand, in medium containing IL-2 (10 U/ml) and IL-7 (5 ng/ml). 7 days later, the culture was restimulated, in a similar manner, in a medium containing no IL-2. After two further stimulations, under the above conditions, the cells were assayed by ELISPOT, in the following way:
[…]. After washing with PBS buffer and then with PBS/0.05% Tween, 100 μl of biotin-conjugated anti-IFNγ secondary antibody (7-B6-1-biotin, Mabtech), diluted to 1 μg/ml in PBS containing 0.05% Tween 20 and 1% BSA, were added to each well. After incubation for one hour, the plates were washed again, and incubated with 100 μl/well of Extravidin-AKP (No. 2636, SIGMA), diluted to 1/5000 in PBS containing 0.05% Tween 20 and 1% BSA. The immunoenzymatic reaction was then visualized by means of the kit No. 170-6432 (Biorad).

[3] = read-out: binds with good affinity to DR1
[4] = read-out: binds with good affinity to DR11
[5] = read-out: binds with good affinity to DRB5

## CC[C@H](C)[C@H](NC(=O)[C@H](CCC(N)=O)NC(=O)CNC(=O)CNC(=O)CNC(=O)[C@@H]1CCCN1C(=O)[C@H](Cc1ccccc1)NC(=O)[C@H](CCCCN)NC(=O)[C@@H](NC(=O)[C@H](CC(=O)O)NC(=O)[C@H](CCC(N)=O)NC(=O)[C@@H]1CCCN1)C(C)C)C(=O)N[C@H](C(=O)NCC(=O)NCC(=O)N[C@H](C(=O)N[C@@H](Cc1ccc(O)cc1)C(=O)N[C@@H](CC(C)C)C(=O)N[C@@H](CC(C)C)C(=O)N1CCC[C@H]1C(=O)N[C@@H](CCCNC(=N)N)C(=O)N[C@@H](CCCNC(=N)N)C(=O)NCC(=O)N1CCC[C@H]1C(=O)N[C@@H](CCCNC(=N)N)C(=O)N[C@@H](CC(C)C)C(=O)NCC(=O)N[C@H](C(=O)N[C@@H](CCCNC(=N)N)C(=O)O)C(C)C)C(C)C)C(C)C [1C 19-47]
HLA-DR1 (DRB1*0101); [3]
  IC50: < 1000 nM
HLA-DR7 (DRB1*0701); read-out: binds with good affinity to DR7
  IC50: < 1000 nM
HLA-DR11 (DRB1*1101); [4]
  IC50: < 1000 nM
HLA-DR13 (DRB1*1301); read-out: binds with good affinity to DR13
  IC50: < 1000 nM
HLA-DR15 (DRB1*1501); DRB1*1501, read-out: binds with good affinity to DR15
  IC50: < 1000 nM
HLA-DRB5 (DRB5*0101); [5]
  IC50: < 1000 nM
HLA-DP402 (DPB1*0402)
  IC50: < 1000 nM
DR3
  IC50: > 100000 nM
DR4
  IC50: 70000 nM
DR7
  IC50: 483 nM
DR13
  IC50: 288 nM
DR15
  IC50: 158 nM
DRB3
  IC50: > 100000 nM
DRB4
  IC50: 6000 nM
DRB5
  IC50: 9 nM
DR11
  IC50: 58 nM
DP401
  IC50: 4520 nM

## CC[C@H](C)[C@H](NC(=O)[C@H](CS)NC(=O)CNC(=O)[C@H](CC(C)C)NC(=O)[C@H](CC(C)C)NC(=O)CNC(=O)[C@H](CCCNC(=N)N)NC(=O)[C@@H](N)[C@@H](C)O)C(=O)N[C@H](C(=O)N[C@H](C(=O)N[C@@H](CO)C(=O)N[C@@H](CC(C)C)C(=O)N[C@H](C(=O)NCC(=O)N[C@@H](CCCNC(=N)N)C(=O)N[C@@H](CC(=O)O)C(=O)N[C@@H](CCCCN)C(=O)N[C@@H](CC(N)=O)C(=O)N[C@@H](CCC(N)=O)C(=O)N[C@H](C(=O)O)C(C)C)[C@@H](C)O)[C@@H](C)O)[C@@H](C)CC [9N 1036-1055] (H-TRGLLGCIITSLTGRDKNQV-OH; N-terminus and C-terminus assumed)
HLA-DR1 (DRB1*0101); competition with biotinylated tracer HA 306-318, read-out: IC50, binding to HLA-DR1
  IC50: 51 nM
HLA-DR1 (DRB1*0101); [3]
  IC50: < 1000 nM
HLA-DR3 (DRB1*0301)
  IC50: > 100000 nM
HLA-DR4 (DRB1*0401); read-out: binds with good affinity to DR4
  IC50: < 1000 nM
HLA-DR4 (DRB1*0401); tracer HA 306-318, read-out: IC50, binding to HLA-DR4
  IC50: 950 nM
HLA-DR7 (DRB1*0701); read-out: IC50, binding to HLA-DR7
  IC50: 2600 nM
HLA-DR11 (DRB1*1101); [4]
  IC50: < 1000 nM
HLA-DR11 (DRB1*1101); tracer HA 306-318, read-out: IC50, binding to HLA-DR11
  IC50: 700 nM
HLA-DR13 (DRB1*1301); tracer B1 21-36, read-out: IC50, binding to HLA-DR13
  IC50: > 100000 nM
HLA-DR15 (DRB1*1501); read-out: IC50, binding to HLA-DR15
  IC50: 5500 nM
HLA-DRB4 (DRB4*0101); read-out: binds with good affinity to DRB4
  IC50: < 1000 nM
HLA-DRB4 (DRB4*0101); tracer E2/E168, read-out: IC50, binding to HLA-DRB4
  IC50: 1000 nM
HLA-DRB5 (DRB5*0101); [5]
  IC50: < 1000 nM
HLA-DRB5 (DRB5*0101); tracer HA 306-318, read-out: IC50, binding to HLA-DRB5
  IC50: 53 nM
[1]; patient 067
  IL10: 58 pg/mL
[1]; patient 078
  IL10: 58 pg/mL
[1]; patient 659
  IL10: 18 pg/mL
[1]; patient 815
  IL10: 156 pg/mL
[1]; patient 862
  IL2: 29.1 pg/mL
DR1
  IC50: 93 nM
DR3
  IC50: 6000 nM
DR4
  IC50: 60 nM
DR15
  IC50: 10000 nM
DRB4
  IC50: 150 nM
DRB5
  IC50: 10 nM
DP401
  IC50: 5330 nM
DP402
  IC50: 4580 nM

## GIFRAAVCTRGVAKA [15N 1178-1192]
[2]
  response of line P014/A (T lymphocytes secreting IFN-γ): responds
  response of line P014/C (T lymphocytes secreting IFN-γ): responds

## KVLVLNPSVAATLGF [18N 1250-1264]
[2]
  response of line P014/A (T lymphocytes secreting IFN-γ): responds

## RLRAYMNTPGLPVAQ [28N 1538-1552]
[2]
  response of line P014/C (T lymphocytes secreting IFN-γ): responds

## VSKGWRLLAPITAYA [8N 1019-1033]
[2]; line P014/B, FIG. 5B
  response of line P014/B (T lymphocytes secreting IFN-γ): responds
